Patent US20260070929A1, “METHODS AND COMPOSITIONS FOR MODULATING KRAS(G12D)” (Ranok Therapeutics (Hangzhou) Co. LTD., priority 2022, published 2026)
pEC50, pIC50: −log10 of the molar value.

Experiments:
KRAS(G12D)/SOS1 = molecular target: T1, KRAS(G12D)/SOS1 (Homo sapiens, UniProt P01116, G12D); assay: KRAS(G12D)/SOS1 homogeneous time-resolved fluorescence (HTRF) assay; format: binding; conditions: absence of GTP; 4° C., 3 hr
T1 construct: purchased Cisbio 63ADK000CB17PEH
Summary of the method: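 Disruption of the KRAS(G12D)/SOS1 pairing, in the absence of GTP, was read by time-resolved FRET after a 3 hr sealed incubation at 4 °C. Test compounds spanned 20 µM down to 1.02 nM in 3-fold steps. IC50 values correspond to half-maximal inhibition.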

[1] = tested on: AGS gastric carcinoma cells [heterozygous G12D]; assay: Cancer cell line proliferation (CellTiter-Glo), AGS; format: cell-based; conditions: Homo sapiens, 72 hr treatment, read-out: AGS CTG (EC50)
Summary of the method: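 Luminescent ATP read-out (CellTiter-Glo) after 72 hr drug exposure gives the EC50. Test compounds were prepared as 3-fold serial dilutions between 20 μM and 1.02 nM, with 0.5% DMSO final per well.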

[2] = tested on: SW1990 pancreatic adenocarcinoma cells [homozygous G12D]; assay: Cancer cell line proliferation (CellTiter-Glo), SW1990; format: cell-based; conditions: Homo sapiens, 72 hr treatment, read-out: SW1990 CTG (EC50)
Method: The following cancer cell lines were employed: AGS gastric carcinoma [heterozygous G12D](ATCC, CRL-1739); A-427 lung carcinoma [heterozygous G12D](ATCC, HTB-53); ASPC1 pancreatic adenocarcinoma [homozygous G12D](ATCC, CRL-1682) and SW1990 pancreatic adenocarcinoma [homozygous G12D](ATCC CRL-2172). Cell lines were cultured essentially according to ATCC recommendations.
AGS, A-427, ASPC1, SW1990, and GP2D cells were plated in 96-well tissue culture plates at 4,000 cells/well and incubated at 37° C./5% CO2 for 72 hr in 100 μl of media. 3-fold serial dilutions of each test compound were prepared ranging from 20 μM to 1.02 nM. Each cell line was then treated with test compounds at various concentrations with a final concentration of 0.5% DMSO/well, and then incubated at 37° C./5% CO2 for 72 hr. 100 µl of CellTiter-Glo® Reagent (Promega Corporation, Madison, WI) was added to each well and processed according manufacturer's protocol. Results were analyzed and EC50 values were calculated in GraphPad 7 software.

T1 sequence (P01116 1-188 isoform P01116-2 G12D): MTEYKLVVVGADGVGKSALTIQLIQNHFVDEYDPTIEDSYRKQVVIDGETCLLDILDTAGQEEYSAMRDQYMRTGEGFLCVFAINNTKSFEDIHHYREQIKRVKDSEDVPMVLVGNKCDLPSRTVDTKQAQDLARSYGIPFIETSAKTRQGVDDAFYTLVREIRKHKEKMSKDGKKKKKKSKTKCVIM

SMILES | pIC50 (KRAS(G12D)/SOS1) | pEC50 [1] | pEC50 [2]
C#Cc1c(F)ccc2cc(O)cc(-c3ncc4c(N5CC6CCC(C5)N6)nc(OCC5(CN6CCN(C7CN(Cc8ccc(-n9c(C(=O)NC(C)C(F)(F)F)nnc9-c9cc(C(C)C)c(O)cc9O)cc8)C7)CC6)CC5)nc4c3F)c12 (stereo not drawn) [Compound 167] | > 7.00 | > 7.00 | > 7.00
C#Cc1c(F)ccc2cc(O)cc(-c3nc(OC)c4c(N5CC6CCC(C5)N6)nc(OCC5(CN6CCN(CC7CCN(Cc8ccc(-n9c(C(=O)NCC(F)(F)F)nnc9-c9cc(C(C)C)c(O)cc9O)cc8)CC7)CC6)CC5)nc4c3F)c12 [Compound 168] | > 7.00 | > 7.00 | > 7.00
C#Cc1c(F)ccc2cc(O)cc(-c3nc(OC)c4c(N5CC6CCC(C5)N6)nc(OCC5(CN6CCN(CC7CCN(Cc8ccc(-n9c(C(=O)NCC)nnc9-c9cc(C(C)C)c(O)cc9O)cc8)CC7)CC6)CC5)nc4c3F)c12 [Compound 169] | > 7.00 | > 7.00 | > 7.00
C#Cc1c(F)ccc2cc(O)cc(-c3nc(OC)c4c(N5CC6CCC(C5)N6)nc(OCC5(CN6CCN(C7CCN(Cc8ccc9c(c8)CN(C(=O)c8cc(O)c(C(C)C)cc8O)C9)CC7)CC6)CC5)nc4c3F)c12 [Compound 170] | > 7.00 | > 7.00 | > 7.00
C#Cc1c(F)ccc2cc(O)cc(-c3ncc4c(N5CC6CCC(C5)N6)nc(OCC5CN(Cc6ccc7c(c6)CN(C(=O)c6cc(C(C)C)c(O)cc6O)C7)C5)nc4c3F)c12 [Compound 172] | > 7.00 | 6.00 to 7.00 | 6.00 to 7.00
C#Cc1c(F)ccc2cc(O)cc(-c3ncc4c(N5CC6CCC(C5)N6)nc(OCc5ccc6c(c5)CN(C(=O)c5cc(C(C)C)c(O)cc5O)C6)nc4c3F)c12 [Compound 173] | 6.00 to 7.00 | 6.00 to 7.00 | < 6.00
C#Cc1c(F)ccc2cc(O)cc(-c3ncc4c(N5CC6CCC(C5)N6)nc(OCC5CN(Cc6ccc(-n7c(C(=O)NC(C)C(F)(F)F)nnc7-c7cc(C(C)C)c(O)cc7O)cc6)C5)nc4c3F)c12 (stereo not drawn) [Compound 174] | > 7.00 | 6.00 to 7.00 | < 6.00
C#Cc1c(F)ccc2cc(O)cc(-c3ncc4c(N5CC6CCC(C5)N6)nc(OCC5CN(Cc6ccc(-n7c(C(=O)NCC(F)(F)F)nnc7-c7cc(C(C)C)c(O)cc7O)cc6)C5)nc4c3F)c12 [Compound 175] | > 7.00 | 6.00 to 7.00 | 6.00 to 7.00
C#Cc1c(F)ccc2cc(O)cc(-c3ncc4c(N5CC6CCC(C5)N6)nc(OC5CN(Cc6ccc(-n7c(C(=O)NC(C)C(F)(F)F)nnc7-c7cc(C(C)C)c(O)cc7O)cc6)C5)nc4c3F)c12 (stereo not drawn) [Compound 176] | 6.00 to 7.00 | 6.00 to 7.00 | < 6.00
C#Cc1c(F)ccc2cc(O)cc(-c3ncc4c(N5CC6CCC(C5)N6)nc(OCC5(CN6CCN(C7CN(Cc8ccc9c(c8)CN(C(=O)c8cc(C(C)C)c(O)cc8O)C9)C7)CC6)CC5)nc4c3F)c12 [Compound 177] | > 7.00 | > 7.00 | > 7.00
C#Cc1c(F)ccc2cc(O)cc(-c3nc(OC)c4c(N5CC6CCC(C5)N6)nc(OCC5(CN6CCN(C7CCN(Cc8ccc(-n9c(C(=O)NC(C)C(F)(F)F)nnc9-c9cc(C(C)C)c(O)cc9O)cc8)CC7)CC6)CC5)nc4c3F)c12 (stereo not drawn) [Compound 178] | > 7.00 | > 7.00 | > 7.00
C#Cc1c(F)ccc2cc(O)cc(-c3ncc4c(N5CC6CCC(C5)N6)nc(OC5CN(Cc6ccc(-n7c(C(=O)NCC(F)(F)F)nnc7-c7cc(C(C)C)c(O)cc7O)cc6)C5)nc4c3F)c12 [Compound 179] | 6.00 to 7.00 | 6.00 to 7.00 | < 6.00
C#Cc1c(F)ccc2cc(O)cc(-c3ncc4c(N5CC6CCC(C5)N6)nc(OCC5(CN6CCC(N7CCN(Cc8ccc9c(c8)CN(C(=O)c8cc(C(C)C)c(O)cc8O)C9)CC7)CC6)CC5)nc4c3F)c12 [Compound 180] | > 7.00 | > 7.00 | > 7.00
C#Cc1c(F)ccc2cc(O)cc(-c3ncc4c(N5CC6CCC(C5)N6)nc(OCC5(CN6CCC(N7CCN(Cc8ccc(-n9c(C(=O)NC(C)C(F)(F)F)nnc9-c9cc(C(C)C)c(O)cc9O)cc8)CC7)CC6)CC5)nc4c3F)c12 (stereo not drawn) [Compound 181] | > 7.00 | > 7.00 | > 7.00
C#Cc1c(F)ccc2cc(O)cc(-c3nc(OC)c4c(N5CC6CCC(C5)N6)nc(OCC5(CN6CCC(C7CCN(Cc8ccc(-n9c(C(=O)NC(C)C(F)(F)F)nnc9-c9cc(C(C)C)c(O)cc9O)cc8)CC7)CC6)CC5)nc4c3F)c12 (stereo not drawn) [Compound 182] | > 7.00 | > 7.00 | > 7.00
C#Cc1c(F)ccc2cc(O)cc(-c3ncc4c(N5CC6CCC(C5)N6)nc(OCC5(CN6CCC7(CCN(Cc8ccc(-n9c(C(=O)NC(C)C(F)(F)F)nnc9-c9cc(C(C)C)c(O)cc9O)cc8)CC7)CC6)CC5)nc4c3F)c12 (stereo not drawn) [Compound 183] | > 7.00 | > 7.00 | > 7.00
C#Cc1c(F)ccc2cc(O)cc(-c3ncc4c(N5CC6CCC(C5)N6)nc(OCC5(CN6CCC7(CCN(Cc8ccc9c(c8)CN(C(=O)c8cc(C(C)C)c(O)cc8O)C9)CC7)CC6)CC5)nc4c3F)c12 [Compound 184] | > 7.00 | > 7.00 | > 7.00
C#Cc1c(F)ccc2cc(O)cc(-c3ncc4c(N5CC6CNC(C6)C5)nc(OCC5(CN6CCC(C7CCN(Cc8ccc(-n9c(C(=O)NC(C)C(F)(F)F)nnc9-c9cc(C(C)C)c(O)cc9O)cc8)CC7)CC6)CC5)nc4c3F)c12 (stereo not drawn) [Compound 185] | 6.00 to 7.00 | 6.00 to 7.00 | 6.00 to 7.00
C#Cc1c(F)ccc2cc(O)cc(-c3nc(OC)c4c(N5CC6CCC(C5)N6)nc(OCC5(CN6CCC(C7CCN(Cc8ccc9c(c8)CN(C(=O)c8cc(C(C)C)c(O)cc8O)C9)CC7)CC6)CC5)nc4c3F)c12 [Compound 186] | > 7.00 | > 7.00 | > 7.00
C#Cc1c(F)ccc2cc(O)cc(-c3ncc4c(N5CC6CNC(C6)C5)nc(OCC5(CN6CCC(C7CCN(Cc8ccc9c(c8)CN(C(=O)c8cc(O)c(C(C)C)cc8O)C9)CC7)CC6)CC5)nc4c3F)c12 (stereo not drawn) [Compound 187] | 6.00 to 7.00 | 6.00 to 7.00 | < 6.00
C#Cc1c(F)ccc2cc(O)cc(-c3ncc4c(N5CC6CNC(C6)C5)nc(OCC5(CN6CCN(C7CCN(Cc8ccc(-n9c(C(=O)NC(C)C(F)(F)F)nnc9-c9cc(C(C)C)c(O)cc9O)cc8)CC7)CC6)CC5)nc4c3F)c12 (stereo not drawn) [Compound 188] | 6.00 to 7.00 | 6.00 to 7.00 | 6.00 to 7.00
C#Cc1c(F)ccc2cc(O)cc(-c3nc(OC)c4c(N5CC6CNC(C6)C5)nc(OCC5(CN6CCN(Cc7ccc(-n8c(C(=O)NCC)nnc8-c8cc(C(C)C)c(O)cc8O)cc7)CC6)CC5)nc4c3F)c12 (stereo not drawn) [Compound 189] | > 7.00 | > 7.00 | > 7.00
C#Cc1c(F)ccc2cc(O)cc(-c3nc(OC)c4c(N5CC6CCC(C5)N6)nc(OCC5(CN6CCN(Cc7ccc8c(c7)CN(C(=O)c7cc(C(C)C)c(O)cc7O)C8)CC6)CC5)nc4c3F)c12 [Compound 190] | > 7.00 | > 7.00 | > 7.00
C#Cc1c(F)ccc2cc(O)cc(-c3nc(OC)c4c(N5CC6CCC(C5)N6)nc(OCC5(CNCC6CN(Cc7ccc8c(c7)CN(C(=O)c7cc(C(C)C)c(O)cc7O)C8)CCO6)CC5)nc4c3F)c12 (stereo not drawn) [Compound 191] | > 7.00 | > 7.00 | 6.00 to 7.00
C#Cc1c(F)ccc2cc(O)cc(-c3nc(OC)c4c(N5CC6CCC(C5)N6)nc(OCC5(CN6CCOC(CNCc7ccc8c(c7)CN(C(=O)c7cc(C(C)C)c(O)cc7O)C8)C6)CC5)nc4c3F)c12 (stereo not drawn) [Compound 192] | < 6.00 | 6.00 to 7.00 | 6.00 to 7.00
C#Cc1c(F)ccc2cc(O)cc(-c3ncc4c(N5CC6CCC(C5)N6)nc(OCC5CN(C6CN(Cc7ccc8c(c7)CN(C(=O)c7cc(C(C)C)c(O)cc7O)C8)C6)C5)nc4c3F)c12 [Compound 193] | > 7.00 | 6.00 to 7.00 | 6.00 to 7.00
C#Cc1c(F)ccc2cc(O)cc(-c3ncc4c(N5CC6CCC(C5)N6)nc(OCC5(CN6CCN(C7CCN(Cc8ccc(-n9c(C(=O)NC(C)C(F)(F)F)nnc9-c9cc(C(C)C)c(OC)cc9OC)cc8)CC7)CC6)CC5)nc4c3F)c12 (stereo not drawn) [Compound 200] |  | 6.00 to 7.00 | < 6.00
C#Cc1c(F)ccc2cc(O)cc(-c3ncc4c(N5CC6CCC(C5)N6)nc(OCC5(CN6CC(N7CCN(Cc8ccc9c(c8)CN(C(=O)c8cc(C(C)C)c(O)cc8O)C9)CC7)C6)CC5)nc4c3F)c12 [Compound 202] |  | 6.00 to 7.00 | 6.00 to 7.00
C#Cc1c(F)ccc2cc(O)cc(-c3ncc4c(N5CC6CCC(C5)N6)nc(OC[C@H]5CCCN5Cc5ccc6c(c5)CN(C(=O)c5cc(C(C)C)c(O)cc5O)C6)nc4c3F)c12 [Compound 204] |  | 6.00 to 7.00 | < 6.00
